Where two headings read alike, the source gives them in different places. Marks after values point to notes of the source that are not given here.
Legend:
[1] = cited from earlier work
[2] = cited from earlier work; remark: listed apart in the source
[3] = cited from earlier work; remark: listed apart in the source
[4] = cited from earlier work; for pGd: [Gd^3+]tot = 1 µM, [L]tot = 10 µM; for pGd / logK^c GdL: pH 7.4, calculated from literature constants; for *logKGd(H2L): diprotonated out-of-cage intermediate
[5] = 25 °C, cited from earlier work
[6] = parameters: method as in earlier work; conditions: stability constant of the Na+ complex; cited from earlier work
[7] = 25 °C, cited from earlier work; remark: listed apart in the source
[8] = Biodistribution and in vivo dynamic T1-weighted MRI; parameters: species or system A/J healthy mice; conditions: 0.1 mmol Gd/kg i.v.
Experimental: Dynamic T 1‐weighted MRI on twelve A/J healthy mice was used to compare the biodistribution of ([Gd(ent‐L2)] and [Gd(BT‐DO3A)] (Gadovist), n = 6 animals each), administered at 0.1 mmol Gd/kg. The MRI monitored the distribution within abdominal tissues for up to 1 h post‐administration MRI images and the pharmacokinetic curves are shown in Figure 6 .
All the procedures and the experiments were conducted according to the national and international laws on experimental animal research (L.D. 26/2014; Directive 2010/63/EU) and under a specific Italian Ministerial Authorization (project research number 46/2015‐PR). Twelve A/J healthy mice (females, 6–7 weeks old, supplied by Envigo RMS S.r.l.) were housed in a controlled environment (22°C, 55% humidity, 15–20 air changes/hour, 12‐h light/dark cycle) with ad libitum access to VRF1 (P) certified pellets and filtered water. To minimize discomfort, the animals were socially housed with enrichment items. Veterinary care was available throughout the study to alleviate any potential pain or distress following procedures. […] The animals were randomly assigned to two experimental groups (n = 6 each, with sample size confirmed via GPower) and underwent to Magnetic Resonance Imaging (MRI) experiments performed using a BioSpec 47/30 preclinical scanner (Bruker Biospin, Ettlingen, Germany) operating at […] (i.e., at a proton Larmor frequency of 125 MHz) and equipped with two‐channel 35 mm RF volume coil. During MRI experiments, all the animals were anaesthetized with isoflurane gas (≈1%) in O2. Anaesthesia was maintained by adjustment of gas level as a function of breath rate. Before injection of each test article, T 1‐weighted spin echo sequences were acquired on the animal in order to check the position of the animal. A series of T 1‐weighted 3D gradient echoscans (repetition time = 50 ms, flip angle = 50°, echo time = 2.8 ms, number of averages = 2, matrix size (3D) = 192 × 192 × 8, field of view = 2.5 × 2.5 × 1.2 cm, acquisition time = 154 s) were then acquired before and after the intravenous administration of a 50 mM saline solution (0.9%) of [Gd(ent‐L2)] (n = 6 mice) and [Gd(BT‐DO3A)] (Gadovist, Bayer Schering, Germany) (n = 6 mice) at an injection rate of ≈2 mL/min through a catheter placed in the tail vein of the animal. Both [Gd(ent‐L2)] and [Gd(BT‐DO3A)] were administered at a dose of 0.1 mmol Gd/kg corresponding to an administration volume of 2 mL kg^−1. The kinetics of the Gd(III)‐complexes was followed up to 60 min post‐injection. After imaging was performed, the mouse was removed from the scanner and returned to the Animal Facility room. At the end of the study all animals were sacrificed by overdose of anaesthesia and cervical dislocation. Unblinded image analysis was performed by positioning the region of interest (ROIs) over liver, kidney, muscle, and blood vessel. ROIs positioning and signal quantification was performed by using a home‐developed plugin, running on Image J.^[ [51] ^]
Signal enhancement (Enh) was calculated using the formula: Enh = 100×(SignalpostCA ‐SignalpreCA)/SignalpreCA, where SignalpreCA and SignalpostCA denote the MR signal before and after administration of contrast agents, respectively. Data were presented as mean ± standard deviation (SD). The sample size (n = 6 per group) was determined a priori using GPower software to ensure adequate statistical power. The Levene's test was employed to assess the homogeneity of variances among groups. For comparisons where homogeneity of variance was confirmed, a one‐way ANalysis Of VAriance (ANOVA) was applied to test the null hypothesis that treatment groups originate from the same distribution. Post‐hoc pairwise multiple comparisons were performed using Tukey's method when significant differences were detected. Statistical analyses and data visualization were conducted using Mathematica (Wolfram, USA), while summary statistics (mean, SD, and standard error) were calculated using Microsoft Excel (USA). […]

## O=C(O)CN1CCN(CC(=O)O)CCN(CC(=O)O)CCN(CC(=O)O)CC1 [DOTA]
[1]; 0.1 M KCl
  logK CaL: 16.37
  logKCaHL: 3.60
[2]; 0.1 M KCl
  logK ZnL: 18.7
  logKZnH2L: 3.96
  logKZnHL: 5.33
[3]; 0.1 M KCl
  logK CuL: 22.72
  logKCuH2L: 3.92
  logKCuHL: 4.45
[4]; 0.1 M KCl
  logKGdHL: 1.15
[4]; 0.1 M Me4NCl, 25 °C
  logK GdL: 25.6
  pGd: 20.24
  logK^c GdL: 19.29
[4]; 0.1 M NaCl, 25 °C
  logK GdL: 24.7
  pGd: 22.09
  logK^c GdL: 21.14
[4]; 0.15 M NaCl, 25 °C
  *logKGd(H2L): 6.07^f)
[5]; 0.1 M KCl
  logK1^H: 11.14
  logK2^H: 9.69
  logK3^H: 4.85
  logK4^H: 3.95
  ΣlogKi^H: 29.63
[5]; 0.1 M Me4NCl
  logK1^H: 11.45
  logK2^H: 9.64
  logK3^H: 4.60
  logK4^H: 4.11
  logK5^H: 2.29
  ΣlogKi^H: 32.09
[5]; 0.15 M NaCl
  logK1^H: 9.14
  logK2^H: 9.21
  logK3^H: 4.48
  logK4^H: 4.03
  logK5^H: 1.99^d)
  ΣlogKi^H: 28.85
[6]
  logKNa(L): 4.38
[7]; pH 7.4, 0.15 M NaCl
  k d at pH = 7.4: 7.3 × 10^−14 s^−1

## CC(O)CN1CCN(CC(=O)O)CCN(CC(=O)O)CCN(CC(=O)O)CC1 (centres unmarked) [HP‐DO3A]
[1]; 0.1 M Me4NCl, 25 °C
  logK CaL: 14.83
[2]; 0.1 M Me4NCl, 25 °C
  logK ZnL: 19.37
[2]; 0.1 M Me4NCl
  logKZnHL: 3.7
[3]; 0.1 M Me4NCl, 25 °C
  logK CuL: 22.84
[3]; 0.1 M Me4NCl
  logKCuH2L: 2.3
  logKCuHL: 3.72
[4]; 0.1 M Me4NCl, 25 °C
  logK GdL: 23.8
[4]; 0.1 M Me4NCl
  logKGdHL: 1.10
  pGd: 18.16
  logK^c GdL: 17.21
[4]; 0.15 M NaCl, 25 °C
  logKGdLH-1: 11.36^f)
  *logKGd(H2L): 5.10^f)
[5]; 0.1 M Me4NCl
  logK1^H: 11.96
  logK2^H: 9.43
  logK3^H: 4.30
  logK4^H: 3.26
  ΣlogKi^H: 28.95
[7]; pH 7.4, 0.1 M NaCl
  k d at pH = 7.4: 1.0 × 10^−11 s^−1
[7]; pH 7.4, 0.15 M NaCl
  k d at pH = 7.4: 1.2 × 10^−11 s^−1

## O=C(O)CN1CCN(CC(=O)O)Cc2cccc(n2)CN(CC(=O)O)CC1 [PCTA, 3,6,9,15‐tetraazabicyclo[9.3.1]pentadeca‐1(15),11,13‐triene‐3,6,9 triacetic acid]
[1]; 1.0 M KCl
  logK CaL: 12.72
  logKCaHL: 3.79
[2]; 1.0 M KCl
  logK ZnL: 20.48
  logKZnHL: 3.10
[3]; 1.0 M KCl
  logK CuL: 18.79
  logKCuHL: 3.58
[4]; 1.0 M KCl
  logK GdL: 20.39
  logKGdLH-1: 11.10
  pGd: 17.11
  *logKGd(H2L): 3.12
  logK^c GdL: 16.15
[5]; 0.15 M NaCl
  logK1^H: 9.97
  logK2^H: 6.73
  logK3^H: 3.22
  logK4^H: 1.40
  ΣlogKi^H: 21.32
[5]; 1.0 M KCl
  logK1^H: 11.36
  logK2^H: 7.35
  logK3^H: 3.83
  logK4^H: 2.12
  ΣlogKi^H: 25.95

## O=C([O-])CN1CCN(CC(=O)[O-])CCN(C(CO)C(O)CO)CCN(CC(=O)[O-])CC1.[Gd+3] (centres unmarked) [[Gd(BT‐DO3A)], reference compound]
[8]; 3 T, n = 6
  average maximum signal enhancement in the liver: ≈ 110%
[8]; up to 1 h post-administration
  wash-in and wash-out kinetics: rapid wash‐in and wash‐out
[8]; within 30 min, 3 T
  decrease in signal enhancement in the blood compartment: ≥ 50%
[7]
  k1: 3.4e-05 M⁻¹ s⁻¹
[7]; pH 7.4, 0.1 M NaCl
  k d at pH = 7.4: 1.35×10^-12 s^−1
